Here are results for one compound from patent US20040242669A1, “Method of treating deficits associated with brain injury” (priority 2003, published 2004).

The structures appear in SMILES notation. Where a name gives a salt, the structure may show the parent alone. Marks after values point to notes of the source that are not given here.

What all share (format): in vivo, rat
The test system of assay [1] is animals with hypobaric hypoxia-induced amnesia. Briefly: Shuttle-box active avoidance acquisition, hypobaric hypoxia-induced amnesia. The conditions noted are these: for Learners / CARs: hypobaric hypoxia; for CARs: mean ± S.E.M. As to the method: (§1) Male rats of the Sprague-Dawley strain (purchased from Charles River, Italy) weighing 280±20 g were used throughout all experiments. The animals were housed two-three to a cage under a constant light-dark cycle (lights on between 8.00 and 20.00) at 21° C. Commercial food and tap water were available ad libitum. All animals were used only once in the behavioral experiments.
(§2) Ropinirole (ropinirole hydrochloride, SmithKline Beecham, Italy) and dihydroergocryptine (DHECP) α-dihydroergocryptine methanesulfonate, Monsanto, Italy) were dissolved in saline and injected subcutaneously (s.c.) at the dose of 0.5 and 1 mg/kg/day for 7 days. In the experiments with kainate-induced convulsions, ropinirole or DHECP were injected intravenously (i.v.) 30 min prior, and again at the same time of the intracerebroventricular (i.c.v) injection on kainic acid; Control animals received an injection of saline alone with the same procedure.
Shuttle-box active avoidance acquisition was studied in a single session test as described in Bohus and De Wied, Endogenous Peptides and Learning and Memory Processes. Academic Press, New York, pp59-775, (1981). Briefly, the rats were trained to avoid the unconditioned stimulus (US) of a scrambled electrical foot-shock (0.20 mA) delivered through the grid floor. The conditioned stimulus (CS) was a buzzer presented for 3 s prior to the US. If no escape occurred within 20 s of CS/US presentation, the shock was terminated. A maximum of 30 conditioning trials were given with a variable intertrial interval averaging 60 s. The learning criterion was five consecutive conditioned avoidance responses (CARs). For those animals that reached the criterion in less than 30 trials, the remaining trials until 30 were considered as CARs. Indexes of avoidance behaviour were the total number of CARs and the percent number of learners per group.
(§3) In the first experiment, the effects of ropinirole or DHECP were studied on amnesia induced by hypobaric hypoxia in rats. After a 7-day pretreatment with ropinirole, DHECP or saline, a group of animals was subjected to acute hypobaric hypoxia by means of a hypobaric chamber (Chantiers et Ateliers de Bretagne, France) causing depression to 300 mmHg (Boismare et al., Gerentology, 24, 6-13 (1978)). After 3 min in the chamber, the animals were removed and admitted for behavioral testing. Intact control rats were also introduced into the chamber but not subjected to hypobaric hypoxia.

Assay [2] has the same test system. Nature of the assay: Open field spontaneous motor activity, hypobaric hypoxia. Conditions: vs intact controls and saline-treated hypoxic animals. As to the method: as §1, §2
Spontaneous motor activity was scored in a circular open field arena as described by Weijnen and Slangen, Pituitary, Adrenal and the Brain, pp221-235 (1982). Animals were put inside a circular lit-up arena, with the bottom divided into 27 areas of equal size.
as §3

The test system of a further assay is kainate-induced epilepsy. Nature of the assay: Kainate-induced convulsions (epilepsy). The conditions noted are these: for Latency (s) to the first tonic-clonic seizure / Seizures (total number) / Mortality (%): kainic acid 10 μg/2 μl i.c.v.; for Latency (s) to the first tonic-clonic seizure / Seizures (total number): 30-min observation, mean ± S.E.M.; for Mortality (%): checked 2 h after convulsive agent. As to the method: as §1
Another group of animals were implanted under ether anaesthesia with a permanent plastic cannula in the right lateral ventricle (foramen interventriculare, Konig and Klippel A 6360) with another cannula into the right jugular vein. These animals were sacrificed at the end of behavioral procedure and the brains were utilized for biochemical analysis. Data were taken from animals showing no abnormalities at the postmortem examination. All experiments were carried out according to the European Community Council Directive 86/609/ECC and efforts were made to minimize animal suffering and to reduce the number of animals used.
Ropinirole (ropinirole hydrochloride, SmithKline Beecham, Italy) and dihydroergocryptine (DHECP) α-dihydroergocryptine methanesulfonate, Monsanto, Italy) were dissolved in saline and injected subcutaneously (s.c.) at the dose of 0.5 and 1 mg/kg/day for 7 days. In the experiments with kainate-induced convulsions, […], and again at the same time of the intracerebroventricular (i.c.v) injection on kainic acid; Control animals received an injection of saline alone with the same procedure.
Kainic acid (Sigma, USA) was dissolved in saline and injected i.c.v. at the dose of 10 μg/2 μi.
Over a 30-min observation, the following items were recorded per each animal receiving an i.c.v. injection of kainic acid: latency in s to the first tonic-clonic seizure; total number of seizures, percent rate of mortality (checked 2 h after the administration of the convulsive agent).
Behavioral scoring of kainate-induced convulsions was started immediately after i.c.v. injection of the drug and proceeded for 30 min. Ropinirole, DHECP or saline were injected twice, 30 min prior and, again, at the same time of the i.c.v. administration of kainic acid.

Assay [3] concerns animals with hypobaric hypoxia-induced amnesia. Nature of the assay: Step-through passive avoidance, hypobaric hypoxia-induced amnesia. Conditions: for Latency: hypobaric hypoxia, median latency to re-enter dark box, max 300 s. As to the method:
as §1, §2
Passive avoidance behaviour was studied in a step-through type of passive avoidance situation (Ader et al., Psycon Sci, 26, 125-128 (1972)). Briefly the rats were adapted to the apparatus consisting of a large dark compartment equipped with a grid floor and a mesh-covered elevated runway attached to the front centre of the dark chamber. Adaptation training was followed by a single trial in which the rats were placed on the elevated platform and allowed to enter the dark box. Three such trials were given on the next day with an intertrial interval of 5 min after the trial. The rats received a single 2-s unavoidable scrambled foot-shock (0.20 mA) immediately after entering the dark compartment. Retention of the response was tested 24 h after the learning trial. The rats were placed on the elevated runway and the latency to re-enter the shock compartment was recorded up to a maximum of 300 s.
as §3

The mark [4] stands for this setting: hypobaric hypoxia-induced amnesia, summary of Table 1.
[5] abbreviates: kainate-induced seizures, summary of Table 3.

For the compound `CCCN(CCC)CCc1cccc2c1CC(=O)N2` [ROP, 4-[2-(di-n-propylamino)ethyl]-1,3-dihydro-2H-indolin-2-one hydrochloride], the “number of CARs and percent number of learners in the shuttle-box (effect of treatment, in words)” value in assay [1] (setting [4]) is “increase”. Besides, in assay [1] (0.5 mg/kg/day s.c. for 7 days), the Learners is on record as 60^d percent and the CARs was 16.8 ± 1.3^b. In assay [1] (1 mg/kg/day s.c. for 7 days), the Learners was 70^d percent and the CARs is 17.2 ± 1.5^b. For the same compound, in assay [2], the “ambulation and rearing (effect of treatment, in words)” value is recorded as “higher”. In the assay with kainate-induced epilepsy (setting [5]), the “latency to the first tonic-clonic seizure (effect of treatment, in words)” value is on record as “did not modify”; the “percent mortality rate (effect of treatment, in words)” value is listed as “significant decrease”; the “total number of kainate-induced seizures (effect of treatment, in words)” value was “did not modify”. In addition, the “Latency (s) to the first tonic-clonic seizure” value in the assay on kainate-induced epilepsy (0.5 mg/kg injected s.c. twice (30 min prior and at kainic acid)) stood at 69.4 ± 8.9 s. In the assay on kainate-induced epilepsy (0.5 mg/kg injected s.c. twice), the “Seizures (total number)” value was 7.1 ± 0.9 and the “Mortality (%)” value is on record as 20^a %. The “Latency (s) to the first tonic-clonic seizure” value with kainate-induced epilepsy (1 mg/kg injected s.c. twice (30 min prior and at kainic acid)) is listed as 65.4 ± 6.9 s. Also, in the assay on kainate-induced epilepsy (1 mg/kg injected s.c. twice), the “Seizures (total number)” value came out at 6.9 ± 0.9 and the “Mortality (%)” value is 10^a %. In assay [3] (setting [4]), the “latency to re-enter the dark box (effect of treatment, in words)” value is listed as “increase”. In assay [3] (0.5 mg/kg/day s.c. for 7 days), the Latency is 47^e,f. Also, the Latency in assay [3] (1 mg/kg/day s.c. for 7 days) is recorded as 65^f.
